As a reminder, the EC50 is the concentration needed to bring the measured effect to its halfway point. A low value points to greater potency. As usually defined, the EC90 is the point of the concentration-response curve where the effect stands at 90%. Low readings indicate greater potency, high ones weaker potency. Usually inhibition stands for the share of the control response that was lost under treatment.

This note sets out measurements from patent US20230172915A1, “DHODH INHIBITOR FOR THE TREATMENT OF COVID-19” (priority 2020, published 2023).

Where two headings read alike, the source gives them in different places.

The test system of data set [1] is SARS-CoV-2. Nature of the data set: SARS-CoV-2 infected Vero cells, N-protein antibody and DAPI staining. The following applies: 30 nM, 300 nM.
For data set [2], the system named is Chinese hamster ovary cells.
The test system of data set [3] is SARS-CoV-2. Description: SARS-CoV-2 titer in Vero cells, TCID50 assay. In kind it is cell-based.
Data set [4] deals with TH2 cells plus venular endothelial cells (/TH2). Nature of the data set: BioMAP profiling, /TH2 system. The following applies: Endothelial cell; for inhibition at 0.1 µM: /TH2, 100 nM. The data set is classed as cell-based. Here is the method: The effect of PTC299 on cytokine production was assessed using BioMAP profiling (BioSeek, now part of Eurofins). The BioMAP system is comprised of complex co-cultures of primary peripheral blood mononuclear cells (PBMCs) with other cell types including B cells, fibroblasts, and endothelial cells allowing for the measurement of physiologically relevant biomarker readouts of the activity of a compound. Using this system, cytokine production was evaluated in the following models of primary cell disease models: • Peripheral blood mononuclear cells (PBMCs) plus venular endothelial cells (sAg) • PBMCs plus B cells (BT) • PBMCs plus fibroblasts (HDFSAg) • TH2 cells plus venular endothelial cells (/TH2).
Abbreviations in Table 4: BCR, B-cell receptor; BT System, co-culture of CD19+ B cells and PBMC that utilizes BCR stimulation and sub-mitogenic TCR stimulation; HDFSAg system, co-culture of human primary dermal fibroblasts and PBMC that is stimulated with sub-mitogenic TCR levels; IL, interleukin; PBMC, Peripheral Blood Mononuclear Cell; SAg system, co-culture of endothelial cells and PBMC stimulated with mitogenic levels of TCR ligands; TCR, T-cell receptor; /TH2 system, co-culture of endothelial cells and Th2 blasts stimulated with TCR ligands and cytokines; Th2, T helper type 2; VEGF, vascular endothelial growth factor.

The mark [5] stands for this setting: Severe acute respiratory syndrome coronavirus 2, Vero cells, extended dose response 0.003-1000 nM.

`COc1ccc([C@H]2c3[nH]c4ccc(Cl)cc4c3CCN2C(=O)Oc2ccc(Cl)cc2)cc1` [PTC299, 4-chlorophenyl (S)-6-chloro-1-(4-methoxyphenyl)-1,3,4,9-tetrahydro-2H-pyrido[3,4-b]indole-2-carboxylate]: the “viability of the cells (DAPI stain)” value in the data set on SARS-CoV-2 [1] (3 µM) was “not cytotoxic”. In the data set with SARS-CoV-2 [1] (3 µM versus untreated controls), the “viral levels by N-protein antibody staining” value is given as “Increasing the PTC299 concentration led to greater reductions”. The chromosomal aberration assay result in data set [2] was “negative”. For the same compound, the “drop in titer versus untreated cells” value with SARS-CoV-2 [3] (Example 11, 1, 0.5, or 0.25 µM, 24 hours post infection) is reported as “three log drop in titer”. In the data set with SARS-CoV-2 [3] (setting [5]), this compound gave an EC50 of 0.0026 µM and an EC90 of 0.053 µM. Moreover, the viral replication result in the data set on SARS-CoV-2 [3] (cells preincubated for 18 hours) is on record as “inhibited viral replication”. Also, the “effect of excess uridine on inhibition of SARS-CoV-2 replication” value with SARS-CoV-2 [3] (excess uridine (100 uM)) is reported as “overcame inhibition of SARS-CoV-2 replication”. Moreover, in the data set on SARS-CoV-2 [3] (pre-incubation 2 hours with 250, 500, and 1000 nM, after 24 hours, all dose levels), the “reduction of viral replication” value is listed as “about 3 orders of magnitude”. For the same compound, the inhibition at 0.01 µM in data set [4] (/TH2, 10 nM, read-out: % Inhibition MCP-1 (converted)) was 21%. Besides, the inhibition at 0.1 µM in data set [4] (read-out: % Inhibition MCP-1 (converted)) was 25%. Besides, the inhibition at 0.1 µM in data set [4] (read-out: % Inhibition sIL-17) is 23%.
